Data published in patent US7759101B2, “Ginsenoside glycosidases hydrolyzing ginsenoside sugar moieties and uses thereof” (priority 2000, dated 2010).

What was measured:
[1] = test system: Enzymes from Plant Seeds—Almond; experiment: Hydrolysis of Rb1 with enzymes from almond; assay type: biochemical; conditions: 1% Rb1 solution, pH 5, 20% ethanol, 50° C., 14 hours
Procedure: 100 g of almond was ground and added to 300 ml of 0.01 M acetate buffer pH 5 for extraction under room temperature for two hours. The mixture was centrifuged. (NH4)2SO4 was added to the supernatant to 60% saturation to precipitate the enzymes. The mixture was stored at 4° C. overnight. Precipitates were collected by centrifugation and dialyzed against 0.01 M acetate buffer pH 5. Impurities were removed and 30 ml of enzyme solution was obtained. 10 ml of the enzyme solution was allowed to react with 10 ml of 1% Rb1 solution (in 0.01 M acetate buffer pH 5 containing 20% ethanol) at 50° C. for 14 hours.

[2] = test system: ginsenoside glycosidases from A. niger; experiment: Hydrolysis of ginsenosides with crude ginsenoside glycosidases from A. niger, products measured by TLC; assay type: biochemical, Aspergillus niger
Procedure: Aspergillus niger FFCCDL-48 g was cultured in a medium containing 1% ginseng extracts and 3% wheat bran extracts at 30° C. for 54 hours. Cells were removed by centrifugation, after which (NH4)2SO4 powder was added to 2000 ml of the cell-free supernatant with stirring to 65% saturation. The solution was stored overnight at 4° C. and precipitated proteins were collected by centrifugation, resuspended in 80 ml of distilled water and dialyzed against 0.01M acetate buffer pH 5. Insolubles were removed by centrifugation, and the solution was adjusted to 200 ml with 0.01 M acetate buffer pH 5. The crude enzyme solution may be used to hydrolyze ginsenosides or to purify the enzymes.
100 mg each of ginsenosides Rb1, Rb2, Rc and Rd and 10 mg of ginsenoside Rg3 were dissolved in separate tubes containing 10 ml of 0.01M acetate buffer pH 5. 10 ml of the crude enzyme solution obtained in 1.1 was added to each tube and allowed to react at 30° C. for 18 hours. Then 10 ml of n-butanol was added to stop the reactions. The products were measured by thin layer chromatography (TLC) (Silica gel 60-F254, Merck; chloroform:methanol:water 70:30:5).
Experiments were carried out to explore the effects of temperature, pH, metal ions and reaction time on the enzyme reaction, in order to further characterize the enzymes.
100 mg of ginsenoside Rb1 was used in a reaction under the conditions as described in 1.2 and the effect of temperature was shown in Table 2.

[3] = test system: Enzymes from Animal Liver; experiment: Hydrolysis of Rb1 with enzymes from animal liver; assay type: biochemical, bovine; conditions: 1% Rb1 solution, pH 5, 20% ethanol, 40° C., 20 hours
Procedure: 100 g of bovine liver was minced and added to 300 ml of 0.01 M acetate buffer pH 5 for extraction under room temperature for two hours. The mixture was centrifuged and (NH4)2SO4 was added to the supernatant to 70% saturation to precipitate the enzymes. The mixture was stored at 4° C. overnight. Precipitates were collected by centrifugation and dialyzed against 0.01 M acetate buffer pH 5. Impurities were removed and 15 ml of enzyme solution was obtained. 10 ml of the enzyme solution was allowed to react with 10 ml of 1% Rb1 solution (in 0.01 M acetate buffer pH 5 containing 20% ethanol) at 40° C. for 20 hours.

[4] = Rb1 0.5%, 20° C., pH 5.0, 18 hours
[5] = Rb1 0.5%, 30° C., pH 5.0, 18 hours
[6] = Rb1 0.5%, 40° C., pH 5.0, 18 hours
[7] = Rb1 0.5%, 50° C., pH 5.0, 18 hours
[8] = Rb1 0.5%, 60° C., pH 5.0, 18 hours
[9] = Rb1 0.5%, 70° C., pH 5.0, 18 hours
[10] = Rb1 0.5%, Ca^++ 50 mM, pH 5.0, 30°C.
[11] = Rb1 0.5%, Ca^++ 100 mM, pH 5.0, 30°C.
[12] = Rb1 0.5%, Cu^++ 100 mM, pH 5.0, 30°C.
[13] = Rb1 0.5%, Mg^++ 50 mM, pH 5.0, 30°C.
[14] = Rb1 0.5%, Mg^++ 100 mM, pH 5.0, 30°C.
[15] = Rb1 0.5%, No ion, pH 5.0, 30°C.
[16] = Rb1 0.5%, Pb^++ 100 mM, pH 5.0, 30°C.
[17] = Rb1 0.5%, pH 3.0, 30° C., 18 hours
[18] = Rb1 0.5%, pH 4.0, 30° C., 18 hours
[19] = Rb1 0.5%, pH 5.0, 30° C., 18 hours
[20] = Rb1 0.5%, pH 6.0, 30° C., 18 hours
[21] = Rb1 0.5%, pH 7.0, 30° C., 18 hours
[22] = Rb1 0.5%, pH 8.0, 30° C., 18 hours
[23] = Rb1 0.5%, reaction time 1 hours, pH 5, 30° C.
[24] = Rb1 0.5%, reaction time 4 hours, pH 5, 30° C.
[25] = Rb1 0.5%, reaction time 8 hours, pH 5, 30° C.
[26] = Rb1 0.5%, reaction time 12 hours, pH 5, 30° C.
[27] = Rb1 0.5%, reaction time 18 hours, pH 5, 30° C.
[28] = Rb1 0.5%, reaction time 24 hours, pH 5, 30° C.
[29] = Rb1 0.5%, reaction time 30 hours, pH 5, 30° C.
[30] = Rb1 0.5%, reaction time 36 hours, pH 5, 30° C.

## CC(C)=CCC[C@](C)(O[C@@H]1O[C@H](CO[C@@H]2O[C@H](CO)[C@@H](O)[C@H](O)[C@H]2O)[C@@H](O)[C@H](O)[C@H]1O)[C@H]1CC[C@]2(C)[C@@H]1[C@H](O)C[C@@H]1[C@@]3(C)CC[C@H](O[C@@H]4O[C@H](CO)[C@@H](O)[C@H](O)[C@H]4O[C@@H]4O[C@H](CO)[C@@H](O)[C@H](O)[C@H]4O)C(C)(C)[C@@H]3CC[C@]12C [Rb1, ginsenoside Rb1]
[1]
  Rb1 converted to ginsenosides with lower sugar contents: 40%
[2]; [4]
  Percentage of C—K in the reaction product: 10%
  Percentage of F2 in the reaction product: 15%
  Percentage of Rb1 in the reaction product: 25%
  Percentage of Rd in the reaction product: 50%
[2]; [5]
  Percentage of C—K in the reaction product: 16%
  Percentage of F2 in the reaction product: 63%
  Percentage of Rb1 in the reaction product: 1%
  Percentage of Rd in the reaction product: 10%
  Percentage of Rh2 in the reaction product: 5%
  Percentage of aglycone in the reaction product: 5%
[2]; [6]
  Percentage of C—K in the reaction product: 34%
  Percentage of F2 in the reaction product: 50%
  Percentage of Rd in the reaction product: 5%
  Percentage of Rh2 in the reaction product: 6%
  Percentage of aglycone in the reaction product: 5%
[2]; [7]
  Percentage of C—K in the reaction product: 42%
  Percentage of F2 in the reaction product: 40%
  Percentage of Rd in the reaction product: 5%
  Percentage of Rh2 in the reaction product: 4%
  Percentage of aglycone in the reaction product: 4%
[2]; [8]
  Percentage of C—K in the reaction product: 6%
  Percentage of F2 in the reaction product: 10%
  Percentage of Rb1 in the reaction product: 30%
  Percentage of Rd in the reaction product: 50%
  Percentage of Rh2 in the reaction product: 2%
  Percentage of aglycone in the reaction product: 2%
[2]; [9]
  Percentage of Rb1 in the reaction product: 82%
  Percentage of Rd in the reaction product: 18%
[2]; [10]
  Percentage of C—K in the reaction product: 20%
  Percentage of F2 in the reaction product: 65%
  Percentage of Rd in the reaction product: 4%
  Percentage of Rh2 in the reaction product: 7%
  Percentage of aglycone in the reaction product: 4%
[2]; [11]
  Percentage of C—K in the reaction product: 21%
  Percentage of F2 in the reaction product: 67%
  Percentage of Rh2 in the reaction product: 7%
  Percentage of aglycone in the reaction product: 5%
[2]; [12]
  Percentage of C—K in the reaction product: 10%
  Percentage of F2 in the reaction product: 30%
  Percentage of Rb1 in the reaction product: 30%
  Percentage of Rd in the reaction product: 30%
[2]; [13]
  Percentage of C—K in the reaction product: 17%
  Percentage of F2 in the reaction product: 65%
  Percentage of Rd in the reaction product: 6%
  Percentage of Rh2 in the reaction product: 7%
  Percentage of aglycone in the reaction product: 5%
[2]; [14]
  Percentage of C—K in the reaction product: 21%
  Percentage of F2 in the reaction product: 67%
  Percentage of Rh2 in the reaction product: 8%
  Percentage of aglycone in the reaction product: 4%
[2]; [15]
  Percentage of C—K in the reaction product: 16%
  Percentage of F2 in the reaction product: 63%
  Percentage of Rd in the reaction product: 10%
  Percentage of Rh2 in the reaction product: 5%
  Percentage of aglycone in the reaction product: 2%
[2]; [16]
  Percentage of C—K in the reaction product: 1%
  Percentage of F2 in the reaction product: 9%
  Percentage of Rb1 in the reaction product: 70%
  Percentage of Rd in the reaction product: 20%
[2]; [17]
  Percentage of C—K in the reaction product: 40%
  Percentage of F2 in the reaction product: 30%
  Percentage of Rb1 in the reaction product: 2%
  Percentage of Rd in the reaction product: 20%
  Percentage of Rh2 in the reaction product: 8%
  Percentage of aglycone in the reaction product: 10%
[2]; [18]
  Percentage of C—K in the reaction product: 39%
  Percentage of F2 in the reaction product: 43%
  Percentage of Rb1 in the reaction product: 1%
  Percentage of Rd in the reaction product: 10%
  Percentage of Rh2 in the reaction product: 7%
  Percentage of aglycone in the reaction product: 5%
[2]; [19]
  Percentage of C—K in the reaction product: 16%
  Percentage of F2 in the reaction product: 63%
  Percentage of Rd in the reaction product: 10%
  Percentage of Rh2 in the reaction product: 5%
  Percentage of aglycone in the reaction product: 5%
[2]; [20]
  Percentage of C—K in the reaction product: 21%
  Percentage of F2 in the reaction product: 56%
  Percentage of Rd in the reaction product: 15%
  Percentage of Rh2 in the reaction product: 4%
  Percentage of aglycone in the reaction product: 4%
[2]; [21]
  Percentage of C—K in the reaction product: 6%
  Percentage of F2 in the reaction product: 41%
  Percentage of Rb1 in the reaction product: 10%
  Percentage of Rd in the reaction product: 41%
  Percentage of Rg3 in the reaction product: 2%
  Percentage of Rh2 in the reaction product: 2%
  Percentage of aglycone in the reaction product: 2%
[2]; [22]
  Percentage of C—K in the reaction product: 6%
  Percentage of F2 in the reaction product: 36%
  Percentage of Rb1 in the reaction product: 20%
  Percentage of Rd in the reaction product: 45%
  Percentage of Rg3 in the reaction product: 3%
[2]; [23]
  Percentage of Rb1 in the reaction product: 38%
  Percentage of Rd in the reaction product: 62%
[2]; [24]
  Percentage of F2 in the reaction product: 10%
  Percentage of Rb1 in the reaction product: 12%
  Percentage of Rd in the reaction product: 72%
[2]; [25]
  Percentage of C—K in the reaction product: 2%
  Percentage of F2 in the reaction product: 38%
  Percentage of Rb1 in the reaction product: 8%
  Percentage of Rd in the reaction product: 51%
[2]; [26]
  Percentage of C—K in the reaction product: 6%
  Percentage of F2 in the reaction product: 54%
  Percentage of Rb1 in the reaction product: 6%
  Percentage of Rd in the reaction product: 30%
  Percentage of Rh2 in the reaction product: 2%
  Percentage of aglycone in the reaction product: 2%
[2]; [27]
  Percentage of C—K in the reaction product: 16%
  Percentage of F2 in the reaction product: 63%
  Percentage of Rd in the reaction product: 10%
  Percentage of Rh2 in the reaction product: 5%
  Percentage of aglycone in the reaction product: 5%
[2]; [28]
  Percentage of C—K in the reaction product: 24%
  Percentage of F2 in the reaction product: 60%
  Percentage of Rd in the reaction product: 8%
  Percentage of Rh2 in the reaction product: 4%
  Percentage of aglycone in the reaction product: 4%
[2]; [29]
  Percentage of C—K in the reaction product: 44%
  Percentage of F2 in the reaction product: 40%
  Percentage of Rd in the reaction product: 5%
  Percentage of Rg3 in the reaction product: 2%
  Percentage of Rh2 in the reaction product: 6%
  Percentage of aglycone in the reaction product: 3%
[2]; [30]
  Percentage of C—K in the reaction product: 52%
  Percentage of F2 in the reaction product: 30%
  Percentage of Rd in the reaction product: 2%
  Percentage of Rg3 in the reaction product: 3%
  Percentage of Rh2 in the reaction product: 7%
  Percentage of aglycone in the reaction product: 6%
[2]; pH 5, 30° C., 18 hours
  Percentage of C—K in the reaction product: 16%
  Percentage of F2 in the reaction product: 63%
  Percentage of Rb1 in the reaction product: 1%
  Percentage of Rd in the reaction product: 10%
  Percentage of Rh2 in the reaction product: 5%
  Percentage of aglycone in the reaction product: 5%
[3]
  Rb1 converted to ginsenosides with lower sugar contents: 50%
